43 molecules from patent US20170233345A1, “SUBSTITUTED QUINOLINE-4-CARBOXAMIDES AND USE THEREOF” (BAYER PHARMA AKTIENGESELLSCHAFT, priority 2014, published 2017) can be followed below.

The test system of the assay is recombinant guanylate cyclase reporter cell line. In words: Effect on a recombinant guanylate cyclase reporter cell line. It is filed as cell-based. To be noted: in some cases mean values from individual determinations, read-out: MEC (minimum effective concentration). As for the experimental part: B-2. Effect on a Recombinant Guanylate Cyclase Reporter Cell Line
The cellular activity of the compounds according to the invention is determined using a recombinant guanylate cyclase reporter cell line, as described in F. Wunder et al., Anal. Biochem. 339, 104-112 (2005).
Representative MEC values (MEC=minimum effective concentration) for the compounds of the invention are shown in the table below (in some cases as mean values from individual determinations): […]

Counter-ions that a name gives are not always drawn.

Consider `COc1ccc(CC(C)(N)CNC(=O)c2ccnc3c(OCc4c(F)cccc4F)cccc23)cc1` (racemic) [Example 35, rac-N-[2-amino-3-(4-methoxyphenyl)-2-methylpropyl]-8-[(2,6-difluorobenzyl)oxy]quinoline-4-carboxamide trifluoroacetate], for which the minimal effective concentration was found to be 3 µM.

Consider `CC(N)(CNC(=O)c1ccnc2c(OCc3c(F)cccc3F)cccc12)C1CC1` (racemic) [Example 42, rac-N-(2-Amino-2-cyclopropylpropyl)-8-[(2,6-difluorobenzyl)oxy]quinoline-4-carboxamide], for which the minimal effective concentration came out at 10 µM.

Regarding `Cc1cc(OCc2c(F)cccc2F)c2nccc(C(=O)NC(C)(CO)c3nnn(C(F)F)n3)c2c1` (racemic) [Example 49, rac-8-[(2,6-Difluorobenzyl)oxy]-N-{2-[2-(difluoromethyl)-2H-tetrazol-5-yl]-1-hydroxypropan-2-yl}-6-methylquinoline-4-carboxamide], the minimal effective concentration amounted to 2 µM.

Turning to `COc1ccc(CC(C)(N)CNC(=O)c2ccnc3c(OCc4c(F)cccc4F)cccc23)cc1` (single isomer, unassigned; enantiomer a) [Example 36, ent-N-[2-Amino-3-(4-methoxyphenyl)-2-methylpropyl]-8-[(2,6-difluorobenzyl)oxy]quinoline-4-carboxamide (Enantiomer A)], the minimal effective concentration is listed as 3 µM.

Turning to `CC(N)(CCC(F)(F)F)CNC(=O)c1ccnc2c(OCc3c(F)cccc3F)cccc12` (single isomer, unassigned; enantiomer b) [Example 6, ent-N-(2-Amino-5,5,5-trifluoro-2-methylpentyl)-8-[(2,6-difluorobenzyl)oxy[quinoline-4-carboxamide (Enantiomer B)], the minimal effective concentration was 0.3 µM.

As to `CC(N)(CNC(=O)c1ccnc2c(OCc3c(F)cccc3F)cccc12)CC(F)F` (single isomer, unassigned; enantiomer b) [Example 7, ent-N-(2-Amino-4,4-difluoro-2-methylbutyl)-8-[(2,6-difluorobenzyl)oxy]quinoline-4-carboxamide (Enantiomer B)], the minimal effective concentration was determined as 2 µM.

For `COc1ccc(CC(C)(N)CNC(=O)c2ccnc3c(OCc4c(F)cccc4F)cccc23)cc1` (single isomer, unassigned; enantiomer b) [Example 37, ent-N-[2-Amino-3-(4-methoxyphenyl)-2-methylpropyl]-8-[(2,6-difluorobenzyl)oxy]quinoline-4-carboxamide (Enantiomer B)], the minimal effective concentration was determined as 10 µM.

Regarding `CC(N)(CCC(F)(F)F)CNC(=O)c1cnc2c(OCc3c(F)cccc3F)cccc2c1` (single isomer, unassigned; enantiomer b) [Example 40, ent-N-(2-Amino-5,5,5-trifluoro-2-methylpentyl)-8-[(2,6-difluorobenzyl)oxy]quinoline-3-carboxamide (Enantiomer B)], the minimal effective concentration was 10 µM.

Regarding `Cc1cc(C(=O)NCC(C)(N)CCC(F)(F)F)c2cccc(OCc3c(F)cccc3F)c2n1` (single isomer, unassigned; enantiomer b) [Example 43, ent-N-(2-Amino-5,5,5-trifluoro-2-methylpentyl)-8-[(2,6-difluorobenzyl)oxy]-2-methylquinoline-4-carboxamide (Enantiomer B)], the minimal effective concentration was determined as 1 µM.

On to `Cc1cc(OCc2c(F)cccc2F)c2nccc(C(=O)NCC(C)(N)CCC(F)(F)F)c2c1` (single isomer, unassigned; enantiomer b) [Example 45, ent-N-(2-Amino-5,5,5-trifluoro-2-methylpentyl)-8-[(2,6-difluorobenzyl)oxy]-6-methylquinoline-4-carboxamide (Enantiomer B)], for which the minimal effective concentration was found to be 0.65 µM.

For `CCC(C)(N)CNC(=O)c1cc(C)nc2c(OCc3c(F)cccc3F)cccc12` (single isomer, unassigned; enantiomer b) [Example 47, ent-N-(2-Amino-2-methylbutyl)-8-[(2,6-difluorobenzyl)oxy]-2-methylquinoline-4-carboxamide (Enantiomer B)], the minimal effective concentration came to 3 µM.

`CC(C)(O)C(CCC(F)(F)C(F)(F)F)NC(=O)c1ccnc2c(OCc3c(F)cccc3F)cccc12` (single isomer, unassigned; ent-8) [Example 32, ent-8-[(2,6-Difluorobenzyl)oxy]-N-(6,6,7,7,7-pentafluoro-2-hydroxy-2-methylheptan-3-yl)quinoline-4-carboxamide (Enantiomer A)]: the minimal effective concentration was 2 µM.

In the case of `O=C(NC1(c2ccc(F)c(F)c2)CC1)c1ccnc2c(OCc3c(F)cccc3F)cccc12` [Example 1, 8-[(2,6-Difluorobenzyl)oxy]-N-[1-(3,4-difluorophenyl)cyclopropyl]quinoline-4-carboxamide], the minimal effective concentration stood at 3 µM.

As for `O=C(Nc1ccnc2ccc(F)cc12)c1ccnc2c(OCc3c(F)cccc3F)cccc12` [Example 2, 8-[(2,6-Difluorobenzyl)oxy]-N-(6-fluoroquinolin-4-yl)quinoline-4-carboxamide], the minimal effective concentration was 10 µM.

In the case of `CCCC[C@H](C)NC(=O)c1ccnc2c(OCc3c(F)cccc3F)cccc12` [Example 3, 8-[(2,6-Difluorobenzyl)oxy]-N-[(2S)-hexan-2-yl]quinoline-4-carboxamide], the minimal effective concentration worked out at 1 µM.

Turning to `CCCC[C@H](CO)NC(=O)c1ccnc2c(OCc3c(F)cccc3F)cccc12` [Example 4, 8-[(2,6-Difluorobenzyl)oxy]-N-[(2R)-1-hydroxyhexan-2-yl]quinoline-4-carboxamide], the minimal effective concentration turned out to be 3 µM.

For `CC[C@](C)(N)CNC(=O)c1ccnc2c(OCc3c(F)cccc3F)cccc12` [Example 5, N-[(2S)-2-Amino-2-methylbutyl]-8-[(2,6-difluorobenzyl)oxy]quinoline-4-carboxamide], the minimal effective concentration was 3 µM.

As for `O=C(NCCC1(O)CCCC1)c1ccnc2c(OCc3c(F)cccc3F)cccc12` [Example 8, 8-[(2,6-Difluorobenzyl)oxy]-N-[2-(1-hydroxycyclopentyl)ethyl]quinoline-4-carboxamide], the minimal effective concentration was 3 µM.

`O=C(NC1c2ccccc2CC1O)c1ccnc2c(OCc3c(F)cccc3F)cccc12` (stereo not shown) [Example 9]: the minimal effective concentration came out at 3 µM.

For the molecule `O=C(N[C@@H](CO)C(=O)Nc1ccc2ccccc2c1)c1ccnc2c(OCc3c(F)cccc3F)cccc12` [Example 10], the minimal effective concentration stood at 10 µM.

As for `CCC(N)(CC)CNC(=O)c1ccnc2c(OCc3c(F)cccc3F)cccc12` [Example 11], the minimal effective concentration worked out at 3 µM.

Turning to `CC1(C)CC(NC(=O)c2ccnc3c(OCc4c(F)cccc4F)cccc23)CC(C)(C)N1` [Example 12], the minimal effective concentration came out at 10 µM.

In the case of `O=C(NC1CC1c1ccccc1)c1ccnc2c(OCc3c(F)cccc3F)cccc12` (stereo not shown) [Example 13], the minimal effective concentration came out at 10 µM.

As to `CN(C)CCNC(=O)c1ccnc2c(OCc3c(F)cccc3F)cccc12` [Example 14], the minimal effective concentration worked out at 10 µM.

Turning to `O=C(NCc1ccccc1-c1cccnc1)c1ccnc2c(OCc3c(F)cccc3F)cccc12` [Example 15], the minimal effective concentration came out at 10 µM.

`O=C(NCCN1CCOCC1)c1ccnc2c(OCc3c(F)cccc3F)cccc12` [Example 16]: the minimal effective concentration was found to be 10 µM.

In the case of `Cc1nn(Cc2ccc(F)cc2)c(C)c1NC(=O)c1ccnc2c(OCc3c(F)cccc3F)cccc12` [Example 17], the minimal effective concentration was 10 µM.

`CC(NC(=O)c1ccnc2c(OCc3c(F)cccc3F)cccc12)c1nc(C(F)(F)F)no1` (stereo not shown) [Example 18]: the minimal effective concentration was determined as 3 µM.

With `Cc1[nH]nc(C(F)(F)F)c1NC(=O)c1ccnc2c(OCc3c(F)cccc3F)cccc12` [Example 19], the minimal effective concentration turned out to be 3 µM.

With `O=C(NCc1ccc(Cl)nc1)c1ccnc2c(OCc3c(F)cccc3F)cccc12` [Example 20], the minimal effective concentration was 3 µM.

On to `CC(COCC(F)(F)F)NC(=O)c1ccnc2c(OCc3c(F)cccc3F)cccc12` (stereo not shown) [Example 21], for which the minimal effective concentration was 3 µM.

As to `O=C(NCC1(O)CC1)c1ccnc2c(OCc3c(F)cccc3F)cccc12` [Example 22], the minimal effective concentration amounted to 3 µM.

As for `O=C(NCCN(CC(F)F)C1CC1)c1ccnc2c(OCc3c(F)cccc3F)cccc12` [Example 23], the minimal effective concentration turned out to be 3 µM.

In the case of `O=C(N[C@H]1CCOC1=O)c1ccnc2c(OCc3c(F)cccc3F)cccc12` [Example 24], the minimal effective concentration is 10 µM.

Turning to `CCC(CO)(CO)NC(=O)c1ccnc2c(OCc3c(F)cccc3F)cccc12` [Example 25], the minimal effective concentration worked out at 10 µM.

For `CN1CCC(NC(=O)c2ccnc3c(OCc4c(F)cccc4F)cccc23)c2ccccc21` (stereo not shown) [Example 27], the minimal effective concentration came to 1 µM.

On to `O=C(NCc1ccccc1-n1ccnc1)c1ccnc2c(OCc3c(F)cccc3F)cccc12` [Example 28], for which the minimal effective concentration came to 3 µM.

In the case of `O=C(NC1CCCc2ccccc21)c1ccnc2c(OCc3c(F)cccc3F)cccc12` (stereo not shown) [Example 29], the minimal effective concentration was 0.3 µM.

On to `O=C(Nc1cnn(CCO)c1)c1ccnc2c(OCc3c(F)cccc3F)cccc12` [Example 30], for which the minimal effective concentration was determined as 10 µM.

Turning to `N#CC(NC(=O)c1ccnc2c(OCc3c(F)cccc3F)cccc12)c1ccc(Cl)cc1` (stereo not shown) [Example 31], the minimal effective concentration amounted to 3 µM.

Regarding `O=C(NC(CO)c1ccc(F)cc1)c1ccnc2c(OCc3c(F)cccc3F)cccc12` (stereo not shown) [Example 33], the minimal effective concentration is 2 µM.

Turning to `O=C(NC1CCOc2ncccc21)c1ccnc2c(OCc3c(F)cccc3F)cccc12` (stereo not shown) [Example 34], the minimal effective concentration was 1 µM.

For the molecule `CCCC[C@H](CO)NC(=O)c1cnc2c(OCc3c(F)cccc3F)cccc2c1` [Example 38, 8-[(2,6-Difluorobenzyl)oxy]-N-[(2R)-1-hydroxyhexan-2-yl]quinoline-3-carboxamide], the minimal effective concentration is 3 µM.
